Assay results reported in patent publication US9234006B2, “Compounds” (Novacta Biosystems Limited, priority 2011, dated 2016).

Columns and labels:
[1] = test system: P. aeruginosa clinical isolates and resistant strains; assay type: cell-based; details: P. aeruginosa
Method: (§1) The in vitro antibacterial activities of the compounds of examples 2 and 6 were evaluated against a panel of […] Gram-negative bacterial isolates alongside Colistin. The panel consisted of 100 clinical isolates of each of A. baumannii, E. coli, K. pneumoniae and P. aeruginosa. The panel represented the current epidemiology in Europe and the USA and included a number of relevant strains with defined resistant phenotypes to current clinically-used antibacterial agents. These resistant strains included 20 A. baumannii, 22 E. coli, 25 K. pneumoniae and 20 P. aeruginosa strains.
(§2) All compounds were tested up to a maximum concentration of 64 μg/mL with the exception of colistin, which was evaluated up to a maximum concentration of 16 μg/mL.

[2] = test system: K. pneumoniae clinical isolates and resistant strains; assay type: cell-based; details: K. pneumoniae
Method: as §1, §2

[3] = test system: A. baumannii clinical isolates and resistant strains; assay type: cell-based; details: A. baumannii
Method: as §1, §2

[4] = test system: E. coli clinical isolates and resistant strains; assay type: cell-based; details: E. coli
Method: as §1, §2

HK-2 cell line = details: 24 h incubation, resazurin reduction; Table 7A; footnote c: solubility issues noted at top concentration
Method: The renal cell toxicity of the compounds was assessed in an in vitro assay using the HK-2 cell line, an immortalized proximal tubule cell line derived from a normal human kidney. The endpoint to describe the toxicity of the compounds was the reduction of resazurin correlating with the metabolic activity of the cells.
Cells were cultured in 150 cm^2 flasks in 25 mL supplemented KSF (with 5 ng/mL EGF and 50 μg/mL BPE). Cells were maintained at 70% confluence with a maximum of 25 passages. Day 1: Media was removed and cells were washed with 10 ml DPBS. […] After 1 to 2 minutes incubation, 14 ml media was added to the flask to inactivate the trypsin. The cell suspension was transferred to a centrifuge tube and the cells pelleted at 1000 rpm for 6 minutes. The cell pellet was then resuspended in fresh media supplemented with EGF and BPE. […] 7500 cells were dispensed in each well in a volume of 160 μl and incubated at 37° C. for 24 h.
Day 2: Test compounds were prepared directly into the media. […] The microtiter plates were removed from the incubator and the media replaced with 100 μl of the dilutions of the compound solution. Every set of concentration was done in triplicate, and positive and negative controls were added to each plate. The plates were then incubated for 24 h at 37° C. with 5% CO2 in a humidified atmosphere.
Day 3: The reagent containing the resazurin (CellTiter-Blue, Promega) was diluted in PBS (1:4) and added at 20% (v/v) to each well. The plates were then incubated at 37° C. for 2 h before the fluorescent reduction product was detected.
Media only background values were subtracted before the data was analysed using GraphPad Prism. Compound concentration values were plotted as log values to enable a dose-response curve to be fitted and IC50 values determined (Table 7).
The renal cell toxicity of the additional example compounds was assessed in an in vitro assay using the HK-2 cell as described in the example above.

P. aeruginosa ATCC10145 = assay: MIC susceptibility testing, broth microdilution in CaMHB; assay type: cell-based, Pseudomonas aeruginosa; details: Table 4A, different batches of cation-adjusted Muller-Hinton broth
Procedure, shortened: (§3)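 Cation-adjusted Mueller-Hinton broth microdilution, run in duplicate. Inoculum from overnight 37 °C cultures subcultured to OD600 0.2-0.3 […], then diluted 100-fold. Different CaMHB batches from the earlier data set.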

[5] = test system: P. aeruginosa ATCCCRM-9027; assay: as above; assay type: cell-based, Pseudomonas aeruginosa; details: P. aeruginosa AATCCRM 9027; Table 4A, different batches of cation-adjusted Muller-Hinton broth
Procedure, shortened: as §3

P. aeruginosa ATCC 9721 = assay: as above; assay type: cell-based, Pseudomonas aeruginosa; details: P. aeruginosa ATCC9721; Table 4A, different batches of cation-adjusted Muller-Hinton broth
Procedure, shortened: as §3

P. aeruginosa ATCC27853 = assay: as above; assay type: cell-based, Pseudomonas aeruginosa; details: Table 4A, different batches of cation-adjusted Muller-Hinton broth
Procedure, shortened: as §3

A. baumannii NCTC7844 = assay: as above; assay type: cell-based, Acinetobacter baumannii; details: Table 4A, different batches of cation-adjusted Muller-Hinton broth
Procedure, shortened: as §3

A. baumannii ATCCBAA-747 = assay: as above; assay type: cell-based, Acinetobacter baumannii; details: Table 4A, different batches of cation-adjusted Muller-Hinton broth
Procedure, shortened: as §3

A. baumannii NCTC13423 = assay: as above; assay type: cell-based, Acinetobacter baumannii; details: Table 4A, different batches of cation-adjusted Muller-Hinton broth
Procedure, shortened: as §3

[6] = test system: Klebsiella pneumoniae ATCC10031; assay type: in vivo; details: neutropenic mice, thigh, K. pneumoniae ATCC10031, total daily dosage 10 mg/Kg; Table 5B
Method: Groups of 5 female specific-pathogen-free CD-1 mice weighing 22±2 g were used. The animals were made neutropenic by intraperitoneal administration of cyclophosphamide on days −4 (150 mg/kg) and −1 (100 mg/kg). […] Examples 2, 4, 5, 6, 7, 8, 10, 11 and polymyxin B were prepared in Normal Saline at 2 mg/mL and the solution was adjusted to pH 6-7 by addition of 0.1M H2SO4 or 4.2% NaHCO3 as required. Twenty-four hours after infection, the mice were euthanized humanely. The muscle of the right thigh of each animal was harvested, homogenized, serially diluted and plated on Brain Heart Infusion agar+0.5% charcoal (w/v) for CFU determination. Decrease of the total CFU of right thigh as compared to control counts at 24 hrs post-infection was determined for each dose group. […] Using the same procedure as described above, the in vivo efficacy of three compounds of the invention (Examples 2,6, and 14) was evaluated in a mouse thigh infection model of Klebsiella pneumoniae ATCC10031, using Colistin (Polymyxin E) as comparator.

K. pneumoniae NCTC7427 = assay: MIC susceptibility testing, broth microdilution in CaMHB; assay type: cell-based, Klebsiella pneumoniae; details: Table 4A, different batches of cation-adjusted Muller-Hinton broth
Procedure, shortened: as §3

K. pneumoniae ATCC 4352 = assay: as above; assay type: cell-based, Klebsiella pneumoniae; details: K. pneumoniae ATCC4352; Table 4A, different batches of cation-adjusted Muller-Hinton broth
Procedure, shortened: as §3

K. pneumoniae NCTC8172 = assay: as above; assay type: cell-based, Klebsiella pneumoniae; details: Table 4A, different batches of cation-adjusted Muller-Hinton broth
Procedure, shortened: as §3

E. coli ATCC25922 = assay: as above; assay type: cell-based, Escherichia coli; details: Table 4A, different batches of cation-adjusted Muller-Hinton broth
Procedure, shortened: as §3

E. coli ATCC700928 = assay: as above; assay type: cell-based, Escherichia coli; details: Table 4A, different batches of cation-adjusted Muller-Hinton broth
Procedure, shortened: as §3

E. coli NCTC9001 = assay: as above; assay type: cell-based, Escherichia coli; details: Table 4A, different batches of cation-adjusted Muller-Hinton broth
Procedure, shortened: as §3

E. coli NCTC12900 = assay: as above; assay type: cell-based, Escherichia coli; details: Table 4A, different batches of cation-adjusted Muller-Hinton broth
Procedure, shortened: as §3

## Colistin [reference compound]
[1]; clinical isolates
  MIC50 Clinical isolates: 2 µg/mL
  MIC90 Clinical isolates: 4 µg/mL
  MIC Range Clinical isolates: 0.25 to 4 µg/mL
[1]; resistant strains
  MIC50 Resistant strains: 2 µg/mL
  MIC90 Resistant strains: 2 µg/mL
  MIC Range Resistant strains: 0.5 to 2 µg/mL
[2]; clinical isolates
  MIC50 Clinical isolates: 2 µg/mL
  MIC90 Clinical isolates: 4 µg/mL
  MIC Range Clinical isolates: 1 to 16 µg/mL
[2]; resistant strains
  MIC50 Resistant strains: 2 µg/mL
  MIC90 Resistant strains: 8 µg/mL
[3]; clinical isolates
  MIC50 Clinical isolates: 2 µg/mL
  MIC90 Clinical isolates: 2 µg/mL
  MIC Range Clinical isolates: 0.5 to 4 µg/mL
[3]; resistant strains
  MIC50 Resistant strains: 2 µg/mL
  MIC90 Resistant strains: 2 µg/mL
  MIC Range Resistant strains: 1 to 4 µg/mL
[4]; clinical isolates
  MIC50 Clinical isolates: 2 µg/mL
  MIC90 Clinical isolates: 2 µg/mL
  MIC Range Clinical isolates: 0.5 to 4 µg/mL
[4]; resistant strains
  MIC50 Resistant strains: 1 µg/mL
  MIC90 Resistant strains: 1 µg/mL
  MIC Range Resistant strains: 0.25 to 2 µg/mL
HK-2 cell line
  IC50 HK-2 cells: 28^a μg/mL
P. aeruginosa ATCC10145
  MIC: 0.5 micrograms/mL
[5]
  MIC: 0.5 micrograms/mL
P. aeruginosa ATCC 9721
  MIC: 0.5 micrograms/mL
P. aeruginosa ATCC27853
  MIC: 0.5 micrograms/mL
A. baumannii NCTC7844
  MIC: 0.125 micrograms/mL
A. baumannii ATCCBAA-747
  MIC: 0.25 micrograms/mL
A. baumannii NCTC13423
  MIC: <0.06 micrograms/mL
[6]
  Mean log10 CFU reduction vs. control: 2.60 log10 CFU
K. pneumoniae NCTC7427
  MIC: 0.25 micrograms/mL
K. pneumoniae ATCC 4352
  MIC: 0.125 micrograms/mL
K. pneumoniae NCTC8172
  MIC: 0.5 micrograms/mL
E. coli ATCC25922
  MIC: 1 micrograms/mL
E. coli ATCC700928
  MIC: 0.25 micrograms/mL
E. coli NCTC9001
  MIC: 2 micrograms/mL
E. coli NCTC12900
  MIC: 0.5 micrograms/mL
